According to patent publication US12440528B2, “Methods of treating ovarian cancer with hemp extract” (Ecofibre USA Inc., priority 2021, dated 2025):
Where two headings read alike, the source gives them in different places.

Key:
[1] = test system: patient derived organoids; assay type: cell-based, human; conditions: organoid of the chemoresistant endometrial cancer patient
Source text: A few of the above drug products, as well as additional drugs were tried for response to patient derived organoids.

P-glycoprotein = P-glycoprotein (Homo sapiens, UniProt P08183); conditions: in vitro; cited from earlier work
[2] = cited from earlier work
[3] = chronic use, humans; cited from earlier work
[4] = cells without a printed unit; cited from earlier work
[5] = test system: patient derived organoids (PD3D Cell Culture); assay: Calculated IC50 in PD3D cell culture of the patient derived organoids; assay type: cell-based, human

Chain of P-glycoprotein (P08183 whole entry): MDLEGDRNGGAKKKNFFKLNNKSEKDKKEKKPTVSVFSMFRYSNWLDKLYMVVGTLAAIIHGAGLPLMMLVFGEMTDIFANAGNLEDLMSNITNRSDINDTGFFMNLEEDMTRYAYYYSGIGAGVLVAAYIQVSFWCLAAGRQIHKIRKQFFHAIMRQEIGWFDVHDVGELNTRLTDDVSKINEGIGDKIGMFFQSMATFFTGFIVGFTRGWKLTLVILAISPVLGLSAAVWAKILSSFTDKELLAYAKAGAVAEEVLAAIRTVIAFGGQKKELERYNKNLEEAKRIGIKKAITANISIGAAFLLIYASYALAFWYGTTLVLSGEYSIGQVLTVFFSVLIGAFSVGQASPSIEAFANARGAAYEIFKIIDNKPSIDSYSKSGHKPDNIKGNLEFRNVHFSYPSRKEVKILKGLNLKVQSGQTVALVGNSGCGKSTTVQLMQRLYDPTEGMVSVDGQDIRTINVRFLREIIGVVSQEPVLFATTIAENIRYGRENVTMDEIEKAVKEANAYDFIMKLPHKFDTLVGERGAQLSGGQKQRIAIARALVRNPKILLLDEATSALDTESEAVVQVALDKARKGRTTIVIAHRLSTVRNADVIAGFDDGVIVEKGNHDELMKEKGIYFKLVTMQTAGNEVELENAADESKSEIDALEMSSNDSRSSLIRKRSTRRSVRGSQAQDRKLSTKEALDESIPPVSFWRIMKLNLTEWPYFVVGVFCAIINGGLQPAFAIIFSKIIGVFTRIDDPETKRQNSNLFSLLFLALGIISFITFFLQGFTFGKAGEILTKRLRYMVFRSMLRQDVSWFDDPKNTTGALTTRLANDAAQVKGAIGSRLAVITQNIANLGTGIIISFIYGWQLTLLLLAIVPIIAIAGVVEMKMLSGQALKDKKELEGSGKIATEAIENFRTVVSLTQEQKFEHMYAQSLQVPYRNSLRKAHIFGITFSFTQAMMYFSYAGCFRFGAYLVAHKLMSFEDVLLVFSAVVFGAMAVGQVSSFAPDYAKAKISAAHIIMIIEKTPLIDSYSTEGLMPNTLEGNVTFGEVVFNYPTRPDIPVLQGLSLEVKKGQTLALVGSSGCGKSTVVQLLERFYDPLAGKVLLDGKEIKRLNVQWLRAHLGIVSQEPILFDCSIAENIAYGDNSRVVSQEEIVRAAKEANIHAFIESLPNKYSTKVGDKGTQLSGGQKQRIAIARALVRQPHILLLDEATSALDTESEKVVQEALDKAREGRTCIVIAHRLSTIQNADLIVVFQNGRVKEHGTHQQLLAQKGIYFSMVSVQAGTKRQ

Row | Compound | response of the patient's organoid [1] | inhibition of P-glycoprotein-mediated drug transport (P-glycoprotein) | peak plasma concentrations of CBD ([2]; coadministration of rifampicin (a CYP3A4 inducer)) | peak plasma drug concentrations ([2]; coadministration of the CYP3A4 inhibitor ketoconazole) | time of maximum plasma concentration ([2]; oral-mucosal or sublingual delivery) [h] | time of maximum plasma concentration, delayed ([2]; orally delivered, some individuals) | time of maximum plasma concentration ([2]; orally delivered) [h] | doses established as well tolerated [3] | Cmax [4] [nM] | Calculated IC50 PD3D Cell Culture [5]
1 | C=C(C)[C@@H]1CCC(C)=C[C@H]1c1c(O)cc(CCCCC)cc1O [CBD, cannabidiol] | significant response | significantly inhibits | significantly reduced | nearly doubled | 1.6 | up to 6 hours | 2.5 to 5 | up to 1,500 mg/day | – | –
2 | CCCCCOC(=O)Nc1nc(=O)n([C@@H]2O[C@H](C)[C@@H](O)[C@H]2O)cc1F [Capecitabine (5-FU), Capecitabine] | – | – | – | – | – | – | – | – | 2220 | Not Reached
